Experimental data from PubChem BioAssay (NCI).
Converted amounts (≈) assume the structure as drawn.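 Each compound was tested at five concentrations against cells in 96-well plates for 48 hours. GI50 marks 50% less growth. TGI marks complete inhibition of growth.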

Tests used:
Assay in all cases: growth of human tumour cells (NCI), 48 h
HCT-15 colon = test system: HCT-15 colon
HT29 colon = test system: HT29 colon
K-562 leukemia = test system: K-562 leukemia
OVCAR-4 ovarian = test system: OVCAR-4 ovarian
OVCAR-5 ovarian = test system: OVCAR-5 ovarian
HCC-2998 colon = test system: HCC-2998 colon
786-0 renal = test system: 786-0 renal
IGROV1 ovarian = test system: IGROV1 ovarian
DU-145 prostate = test system: DU-145 prostate
RPMI-8226 leukemia = test system: RPMI-8226 leukemia
COLO 205 colon = test system: COLO 205 colon
SR leukemia = test system: SR leukemia
NCI-H460 lung = test system: NCI-H460 lung
UACC-62 melanoma = test system: UACC-62 melanoma
NCI-H23 lung = test system: NCI-H23 lung
NCI/ADR-RES ovarian = test system: NCI/ADR-RES ovarian
SK-MEL-2 melanoma = test system: SK-MEL-2 melanoma
SNB-75 CNS = test system: SNB-75 CNS
SW-620 colon = test system: SW-620 colon
OVCAR-8 ovarian = test system: OVCAR-8 ovarian
CCRF-CEM leukemia = test system: CCRF-CEM leukemia
SF-539 CNS = test system: SF-539 CNS
TK-10 renal = test system: TK-10 renal
HOP-92 NSCLC = test system: HOP-92 NSCLC
MCF7 breast = test system: MCF7 breast
UO-31 renal = test system: UO-31 renal
NCI-H226 lung = test system: NCI-H226 lung
HCT-116 colon = test system: HCT-116 colon
EKVX NSCLC = test system: EKVX NSCLC
SK-MEL-28 melanoma = test system: SK-MEL-28 melanoma
MOLT-4 leukemia = test system: MOLT-4 leukemia
OVCAR-3 ovarian = test system: OVCAR-3 ovarian
A549 NSCLC = test system: A549 NSCLC
SN12C renal = test system: SN12C renal
BT-549 breast = test system: BT-549 breast
LOX IMVI melanoma = test system: LOX IMVI melanoma
ACHN renal = test system: ACHN renal
U251 CNS = test system: U251 CNS
SNB-19 CNS = test system: SNB-19 CNS
RXF 393 renal = test system: RXF 393 renal
PC-3 prostate = test system: PC-3 prostate
T-47D breast = test system: T-47D breast
SK-MEL-5 melanoma = test system: SK-MEL-5 melanoma
SK-OV-3 ovarian = test system: SK-OV-3 ovarian
HS 578T breast = test system: HS 578T breast
KM12 colon = test system: KM12 colon
HOP-62 NSCLC = test system: HOP-62 NSCLC
SF-295 CNS = test system: SF-295 CNS
MDA-MB-231 breast = test system: MDA-MB-231 breast
M14 melanoma = test system: M14 melanoma

## C/C(=C\c1cnc(C)s1)[C@@H]1C[C@@H]2O[C@@H]2CCC[C@H](C)[C@H](O)[C@@H](C)C(=O)C(C)(C)[C@@H](O)CC(=O)O1
HCT-15 colon
  GI50: < 10 nM
  TGI: > 100000 nM
HT29 colon
  GI50: < 10 nM
  TGI: > 100000 nM
K-562 leukemia
  GI50: < 10 nM
  TGI: > 100000 nM
OVCAR-4 ovarian
  TGI: > 100000 nM
OVCAR-5 ovarian
  GI50: < 10 nM
  TGI: > 100000 nM
HCC-2998 colon
  GI50: 10.3 nM
  TGI: > 100000 nM
786-0 renal
  GI50: < 10 nM
  TGI: > 100000 nM
IGROV1 ovarian
  GI50: 10.3 nM
  TGI: > 100000 nM
DU-145 prostate
  GI50: < 10 nM
  TGI: > 100000 nM
RPMI-8226 leukemia
  GI50: < 10 nM
  TGI: > 100000 nM
COLO 205 colon
  GI50: < 10 nM
  TGI: 30.4 nM
SR leukemia
  GI50: < 10 nM
  TGI: > 100000 nM
NCI-H460 lung
  GI50: < 10 nM
  TGI: > 100000 nM
UACC-62 melanoma
  GI50: < 10 nM
  TGI: > 100000 nM
NCI-H23 lung
  GI50: < 10 nM
  TGI: > 100000 nM
NCI/ADR-RES ovarian
  GI50: 22.8 nM
  TGI: > 100000 nM
SK-MEL-2 melanoma
  GI50: < 14.6 nM
  TGI: > 100000 nM
SNB-75 CNS
  GI50: < 10 nM
SW-620 colon
  GI50: < 10 nM
  TGI: > 100000 nM
OVCAR-8 ovarian
  GI50: < 10 nM
  TGI: > 100000 nM
CCRF-CEM leukemia
  GI50: < 10 nM
  TGI: > 100000 nM
SF-539 CNS
  GI50: < 10 nM
  TGI: > 100000 nM
TK-10 renal
  GI50: 936 nM
  TGI: > 100000 nM
HOP-92 NSCLC
  GI50: < 16.2 nM
  TGI: > 100000 nM
MCF7 breast
  GI50: < 10 nM
  TGI: > 100000 nM
UO-31 renal
  GI50: < 10.5 nM
  TGI: > 100000 nM
NCI-H226 lung
  TGI: > 100000 nM
HCT-116 colon
  GI50: < 10 nM
  TGI: > 100000 nM
EKVX NSCLC
  GI50: 12.7 nM
  TGI: > 100000 nM
SK-MEL-28 melanoma
  GI50: > 100000 nM
  TGI: > 100000 nM
MOLT-4 leukemia
  GI50: < 10 nM
  TGI: > 100000 nM
OVCAR-3 ovarian
  GI50: < 10 nM
  TGI: > 100000 nM
A549 NSCLC
  GI50: < 10 nM
  TGI: > 100000 nM
SN12C renal
  GI50: < 10 nM
  TGI: > 100000 nM
BT-549 breast
  GI50: < 10 nM
  TGI: > 100000 nM
LOX IMVI melanoma
  GI50: < 10 nM
  TGI: > 100000 nM
ACHN renal
  GI50: < 10 nM
  TGI: > 100000 nM
U251 CNS
  GI50: < 10 nM
  TGI: > 100000 nM
SNB-19 CNS
  GI50: < 10 nM
  TGI: > 100000 nM
RXF 393 renal
  GI50: < 10 nM
  TGI: > 100000 nM
PC-3 prostate
  GI50: < 10 nM
  TGI: > 100000 nM
T-47D breast
  GI50: 17.1 nM
  TGI: > 100000 nM
SK-MEL-5 melanoma
  GI50: < 10 nM
  TGI: > 100000 nM
SK-OV-3 ovarian
  GI50: < 12.5 nM
  TGI: > 100000 nM
HS 578T breast
  GI50: 11.7 nM
  TGI: > 100000 nM
KM12 colon
  GI50: < 10 nM
  TGI: > 100000 nM
HOP-62 NSCLC
  GI50: < 12.7 nM
  TGI: > 100000 nM
SF-295 CNS
  GI50: 10.2 nM
  TGI: > 100000 nM
MDA-MB-231 breast
  GI50: < 14.8 nM
  TGI: > 100000 nM

## CC(NC(=O)C(N)CCC(=O)O)C(=O)NCP(=O)(O)O (stereo unspecified)
M14 melanoma
  GI50: 15.9 µg/mL (≈ 51.1 µM)
